In ChEMBL document CHEMBL5303573, “Mapping human microbiome drug metabolism by gut bacteria and their genes” (Nature, 2019):

Tested on: not given
Conditions: enterocloster bolteae, 12 h, 2 µM

Compound	Bacterial Biotransformation
CCOC(=O)C1=C(C)NC(C)=C(C(=O)OC)C1c1cccc([N+](=O)[O-])c1 (stereo unspecified) [NITRENDIPINE]	Compound metabolized
C#C[C@]1(O)CC[C@H]2[C@@H]3CCC4=Cc5oncc5C[C@]4(C)[C@H]3CC[C@@]21C [DANAZOL]	Compound metabolized
COc1ccnc(C[S+]([O-])c2nc3ccc(OC(F)F)cc3[nH]2)c1OC (stereo unspecified) [PANTOPRAZOLE]	Compound metabolized
Nc1ccc(/N=N/c2ccccc2)c(N)n1 [PHENAZOPYRIDINE]	Compound metabolized

Tested on: not listed separately
Test: The drug is tested on Clostridium sp. strain: fecal isolate for biotransformation. The drug concentrations were measured before and after a 12-h incubation by liquid-chromatography-coupled mass spectrometry (LC–MS)
Conditions: 2 µM

Compound	Bacterial Biotransformation
CCOC(=O)C1=C(C)NC(C)=C(C(=O)OC)C1c1cccc([N+](=O)[O-])c1 (stereo unspecified) [NITRENDIPINE]	Compound metabolized
C#C[C@]1(O)CC[C@H]2[C@@H]3CCC4=Cc5oncc5C[C@]4(C)[C@H]3CC[C@@]21C [DANAZOL]	Compound metabolized
COc1ccnc(C[S+]([O-])c2nc3ccc(OC(F)F)cc3[nH]2)c1OC (stereo unspecified) [PANTOPRAZOLE]	Compound metabolized
Nc1ccc(/N=N/c2ccccc2)c(N)n1 [PHENAZOPYRIDINE]	Compound metabolized

Tested on: not listed separately
Test: The drug is tested on Clostridium symbiosum strain: ATCC14940 for biotransformation. The drug concentrations were measured before and after a 12-h incubation by liquid-chromatography-coupled mass spectrometry (LC–MS)
Conditions: 2 µM

Compound	Bacterial Biotransformation
CCOC(=O)C1=C(C)NC(C)=C(C(=O)OC)C1c1cccc([N+](=O)[O-])c1 (stereo unspecified) [NITRENDIPINE]	Compound metabolized
C#C[C@]1(O)CC[C@H]2[C@@H]3CCC4=Cc5oncc5C[C@]4(C)[C@H]3CC[C@@]21C [DANAZOL]	Compound metabolized
COc1ccnc(C[S+]([O-])c2nc3ccc(OC(F)F)cc3[nH]2)c1OC (stereo unspecified) [PANTOPRAZOLE]	Compound metabolized
Nc1ccc(/N=N/c2ccccc2)c(N)n1 [PHENAZOPYRIDINE]	Compound metabolized

Target: T1, Acetyl esterase (Acetylxylosidase) (Bacteroides thetaiotaomicron, UniProt Q8ABF8)
T1 sequence (Q8ABF8 whole entry): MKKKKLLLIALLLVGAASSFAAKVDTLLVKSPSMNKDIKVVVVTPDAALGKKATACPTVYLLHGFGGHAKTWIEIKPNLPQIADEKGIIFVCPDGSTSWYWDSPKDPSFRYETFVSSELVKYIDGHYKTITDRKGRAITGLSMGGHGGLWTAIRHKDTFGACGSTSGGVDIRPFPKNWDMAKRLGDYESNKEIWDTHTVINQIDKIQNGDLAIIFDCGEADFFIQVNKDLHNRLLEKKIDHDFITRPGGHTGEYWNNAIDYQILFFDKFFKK
Test: (§1) The drug is tested on Bacteroides thetaiotaomicron strain: VPI-5482 for biotransformation. The drug concentrations were measured before and after a 12-h incubation by liquid-chromatography-coupled mass spectrometry (LC–MS)
Assay type: ADME
Set-up: dose 2 uM
Conditions: 2 µM

Compound	Bacterial Biotransformation
CCOC(=O)C1=C(C)NC(C)=C(C(=O)OC)C1c1cccc([N+](=O)[O-])c1 (stereo unspecified) [NITRENDIPINE]	Compound NOT metabolized
C#C[C@]1(O)CC[C@H]2[C@@H]3CCC4=Cc5oncc5C[C@]4(C)[C@H]3CC[C@@]21C [DANAZOL]	Compound NOT metabolized
COc1ccnc(C[S+]([O-])c2nc3ccc(OC(F)F)cc3[nH]2)c1OC (stereo unspecified) [PANTOPRAZOLE]	Compound NOT metabolized
Nc1ccc(/N=N/c2ccccc2)c(N)n1 [PHENAZOPYRIDINE]	Compound NOT metabolized

Target: T2, 3-oxo-5-alpha-steroid 4-dehydrogenase (Bacteroides thetaiotaomicron, UniProt Q8A618)
T2 sequence (Q8A618 whole entry): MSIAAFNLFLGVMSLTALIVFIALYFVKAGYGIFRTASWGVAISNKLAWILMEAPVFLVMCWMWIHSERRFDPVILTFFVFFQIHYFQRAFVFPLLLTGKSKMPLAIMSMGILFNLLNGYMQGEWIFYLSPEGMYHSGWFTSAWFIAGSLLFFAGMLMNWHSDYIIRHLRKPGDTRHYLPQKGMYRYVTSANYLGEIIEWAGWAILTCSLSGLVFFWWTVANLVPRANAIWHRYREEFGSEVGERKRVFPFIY
Test: as §1
Assay type: ADME
Set-up: dose 2 uM
Conditions: 2 µM

Compound	Bacterial Biotransformation
CCOC(=O)C1=C(C)NC(C)=C(C(=O)OC)C1c1cccc([N+](=O)[O-])c1 (stereo unspecified) [NITRENDIPINE]	Compound NOT metabolized
C#C[C@]1(O)CC[C@H]2[C@@H]3CCC4=Cc5oncc5C[C@]4(C)[C@H]3CC[C@@]21C [DANAZOL]	Compound NOT metabolized
COc1ccnc(C[S+]([O-])c2nc3ccc(OC(F)F)cc3[nH]2)c1OC (stereo unspecified) [PANTOPRAZOLE]	Compound NOT metabolized
Nc1ccc(/N=N/c2ccccc2)c(N)n1 [PHENAZOPYRIDINE]	Compound NOT metabolized

Tested on: not given
Conditions: bacteroides fragilis, 12 h, 2 µM

Compound	Bacterial Biotransformation
CCOC(=O)C1=C(C)NC(C)=C(C(=O)OC)C1c1cccc([N+](=O)[O-])c1 (stereo unspecified) [NITRENDIPINE]	Compound metabolized
C#C[C@]1(O)CC[C@H]2[C@@H]3CCC4=Cc5oncc5C[C@]4(C)[C@H]3CC[C@@]21C [DANAZOL]	Compound metabolized
COc1ccnc(C[S+]([O-])c2nc3ccc(OC(F)F)cc3[nH]2)c1OC (stereo unspecified) [PANTOPRAZOLE]	Compound metabolized
Nc1ccc(/N=N/c2ccccc2)c(N)n1 [PHENAZOPYRIDINE]	Compound metabolized

Tested on: not listed separately
Test: The drug is tested on Eggerthella lenta strain: ATCC25559 for biotransformation. The drug concentrations were measured before and after a 12-h incubation by liquid-chromatography-coupled mass spectrometry (LC–MS)
Conditions: 2 µM

Compound	Bacterial Biotransformation
CCOC(=O)C1=C(C)NC(C)=C(C(=O)OC)C1c1cccc([N+](=O)[O-])c1 (stereo unspecified) [NITRENDIPINE]	Compound metabolized
C#C[C@]1(O)CC[C@H]2[C@@H]3CCC4=Cc5oncc5C[C@]4(C)[C@H]3CC[C@@]21C [DANAZOL]	Compound metabolized
COc1ccnc(C[S+]([O-])c2nc3ccc(OC(F)F)cc3[nH]2)c1OC (stereo unspecified) [PANTOPRAZOLE]	Compound metabolized
Nc1ccc(/N=N/c2ccccc2)c(N)n1 [PHENAZOPYRIDINE]	Compound metabolized

Target: T3, Pyridine nucleotide-disulfide oxidoreductase (Collinsella aerofaciens, UniProt A4EBM5)
T3 sequence (A4EBM5 whole entry): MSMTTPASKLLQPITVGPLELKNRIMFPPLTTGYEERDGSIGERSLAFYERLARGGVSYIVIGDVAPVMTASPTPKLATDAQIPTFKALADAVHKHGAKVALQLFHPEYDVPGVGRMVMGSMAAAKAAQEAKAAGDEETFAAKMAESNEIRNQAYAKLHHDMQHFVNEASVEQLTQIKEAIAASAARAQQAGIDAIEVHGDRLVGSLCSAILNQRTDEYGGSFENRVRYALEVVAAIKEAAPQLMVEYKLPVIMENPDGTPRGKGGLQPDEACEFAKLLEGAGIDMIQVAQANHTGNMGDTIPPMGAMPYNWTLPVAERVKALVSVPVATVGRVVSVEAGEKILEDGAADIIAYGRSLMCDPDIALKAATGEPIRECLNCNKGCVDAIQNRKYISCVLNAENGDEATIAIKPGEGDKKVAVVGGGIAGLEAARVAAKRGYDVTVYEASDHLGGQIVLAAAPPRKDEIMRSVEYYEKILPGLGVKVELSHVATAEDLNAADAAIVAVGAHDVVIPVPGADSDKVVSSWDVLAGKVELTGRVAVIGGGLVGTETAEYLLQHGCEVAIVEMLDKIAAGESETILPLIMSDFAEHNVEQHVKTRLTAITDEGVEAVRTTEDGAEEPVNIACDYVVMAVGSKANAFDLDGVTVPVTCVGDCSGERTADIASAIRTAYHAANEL
Test: (§2) The drug is tested on Collinsella aerofaciens strain: ATCC25986 for biotransformation. The drug concentrations were measured before and after a 12-h incubation by liquid-chromatography-coupled mass spectrometry (LC–MS)
Assay type: ADME
Set-up: dose 2 uM
Conditions: 2 µM

Compound	Bacterial Biotransformation
CCOC(=O)C1=C(C)NC(C)=C(C(=O)OC)C1c1cccc([N+](=O)[O-])c1 (stereo unspecified) [NITRENDIPINE]	Compound NOT metabolized
C#C[C@]1(O)CC[C@H]2[C@@H]3CCC4=Cc5oncc5C[C@]4(C)[C@H]3CC[C@@]21C [DANAZOL]	Compound NOT metabolized
COc1ccnc(C[S+]([O-])c2nc3ccc(OC(F)F)cc3[nH]2)c1OC (stereo unspecified) [PANTOPRAZOLE]	Compound NOT metabolized
Nc1ccc(/N=N/c2ccccc2)c(N)n1 [PHENAZOPYRIDINE]	Compound NOT metabolized

Target: T4, GDSL-like protein (Collinsella aerofaciens, UniProt A4E7D0)
T4 sequence (A4E7D0 whole entry): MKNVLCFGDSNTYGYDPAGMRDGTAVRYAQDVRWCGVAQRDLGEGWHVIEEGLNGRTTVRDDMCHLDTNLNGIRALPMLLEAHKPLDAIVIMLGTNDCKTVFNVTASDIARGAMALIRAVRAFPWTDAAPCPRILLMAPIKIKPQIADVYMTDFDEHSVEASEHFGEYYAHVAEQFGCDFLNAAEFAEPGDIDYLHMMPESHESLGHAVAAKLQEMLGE
Test: as §2
Assay type: ADME
Set-up: dose 2 uM
Conditions: 2 µM

Compound	Bacterial Biotransformation
CCOC(=O)C1=C(C)NC(C)=C(C(=O)OC)C1c1cccc([N+](=O)[O-])c1 (stereo unspecified) [NITRENDIPINE]	Compound NOT metabolized
C#C[C@]1(O)CC[C@H]2[C@@H]3CCC4=Cc5oncc5C[C@]4(C)[C@H]3CC[C@@]21C [DANAZOL]	Compound NOT metabolized
COc1ccnc(C[S+]([O-])c2nc3ccc(OC(F)F)cc3[nH]2)c1OC (stereo unspecified) [PANTOPRAZOLE]	Compound NOT metabolized
Nc1ccc(/N=N/c2ccccc2)c(N)n1 [PHENAZOPYRIDINE]	Compound NOT metabolized

Target: T5, Flavodoxin (Collinsella aerofaciens, UniProt A4ED08)
T5 sequence (A4ED08 whole entry): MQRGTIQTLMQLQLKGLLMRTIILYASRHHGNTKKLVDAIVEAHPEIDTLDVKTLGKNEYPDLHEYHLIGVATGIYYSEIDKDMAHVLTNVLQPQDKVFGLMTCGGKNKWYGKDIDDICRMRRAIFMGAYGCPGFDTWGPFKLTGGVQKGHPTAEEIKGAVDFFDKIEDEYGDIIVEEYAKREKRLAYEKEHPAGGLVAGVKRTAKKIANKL
Test: as §2
Assay type: ADME
Set-up: dose 2 uM
Conditions: 2 µM

Compound	Bacterial Biotransformation
CCOC(=O)C1=C(C)NC(C)=C(C(=O)OC)C1c1cccc([N+](=O)[O-])c1 (stereo unspecified) [NITRENDIPINE]	Compound NOT metabolized
C#C[C@]1(O)CC[C@H]2[C@@H]3CCC4=Cc5oncc5C[C@]4(C)[C@H]3CC[C@@]21C [DANAZOL]	Compound NOT metabolized
COc1ccnc(C[S+]([O-])c2nc3ccc(OC(F)F)cc3[nH]2)c1OC (stereo unspecified) [PANTOPRAZOLE]	Compound NOT metabolized
Nc1ccc(/N=N/c2ccccc2)c(N)n1 [PHENAZOPYRIDINE]	Compound metabolized

Target: T6, Diguanylate cyclase (Collinsella aerofaciens, UniProt A4EB91)
T6 sequence (A4EB91 whole entry): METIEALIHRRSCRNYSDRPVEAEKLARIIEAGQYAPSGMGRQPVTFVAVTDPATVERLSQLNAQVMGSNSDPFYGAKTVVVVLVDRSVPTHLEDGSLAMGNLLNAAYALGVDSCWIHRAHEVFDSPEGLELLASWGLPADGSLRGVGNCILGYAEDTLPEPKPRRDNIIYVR
Test: as §2
Assay type: ADME
Set-up: dose 2 uM
Conditions: 2 µM

Compound	Bacterial Biotransformation
CCOC(=O)C1=C(C)NC(C)=C(C(=O)OC)C1c1cccc([N+](=O)[O-])c1 (stereo unspecified) [NITRENDIPINE]	Compound metabolized
C#C[C@]1(O)CC[C@H]2[C@@H]3CCC4=Cc5oncc5C[C@]4(C)[C@H]3CC[C@@]21C [DANAZOL]	Compound NOT metabolized
COc1ccnc(C[S+]([O-])c2nc3ccc(OC(F)F)cc3[nH]2)c1OC (stereo unspecified) [PANTOPRAZOLE]	Compound NOT metabolized
Nc1ccc(/N=N/c2ccccc2)c(N)n1 [PHENAZOPYRIDINE]	Compound NOT metabolized

Tested on: not given
Conditions: bacteroides stercoris, 12 h, 2 µM

Compound	Bacterial Biotransformation
CCOC(=O)C1=C(C)NC(C)=C(C(=O)OC)C1c1cccc([N+](=O)[O-])c1 (stereo unspecified) [NITRENDIPINE]	Compound metabolized
C#C[C@]1(O)CC[C@H]2[C@@H]3CCC4=Cc5oncc5C[C@]4(C)[C@H]3CC[C@@]21C [DANAZOL]	Compound metabolized
COc1ccnc(C[S+]([O-])c2nc3ccc(OC(F)F)cc3[nH]2)c1OC (stereo unspecified) [PANTOPRAZOLE]	Compound metabolized

Tested on: not listed separately
Test: The drug is tested on Bifidobacterium ruminantium strain: fecal isolate for biotransformation. The drug concentrations were measured before and after a 12-h incubation by liquid-chromatography-coupled mass spectrometry (LC–MS)
Conditions: 2 µM

Compound	Bacterial Biotransformation
CCOC(=O)C1=C(C)NC(C)=C(C(=O)OC)C1c1cccc([N+](=O)[O-])c1 (stereo unspecified) [NITRENDIPINE]	Compound metabolized
C#C[C@]1(O)CC[C@H]2[C@@H]3CCC4=Cc5oncc5C[C@]4(C)[C@H]3CC[C@@]21C [DANAZOL]	Compound metabolized
COc1ccnc(C[S+]([O-])c2nc3ccc(OC(F)F)cc3[nH]2)c1OC (stereo unspecified) [PANTOPRAZOLE]	Compound metabolized
Nc1ccc(/N=N/c2ccccc2)c(N)n1 [PHENAZOPYRIDINE]	Compound metabolized
